Results taken from US20260131007A1, “Mannose 6-Phosphate Receptor Binding Compounds for the Degradation of Extracellular Proteins” (Avilar Therapeutics, Inc., priority 2023, published 2026).
Bridge positions count the residues as written; N and C are the ends. Square brackets hold non-standard residues; d marks the D form.

Each molecule was assayed against Biotinylated-IgG1 (Viva 20211108) (assay: HTRF ternary complex formation: compound titrated into 60 nM biotinylated IgG1 + 60 nM His-tagged hIGF-IIR (R&D 6418-GR); grade read by the legend '<50 nM = ***'). Conditions: not given.

Molecule | EC50
cyclo(ELVWCT[dP]PDCAWHLG) (disulfide 5-10; not fully specified (residue 8); also: one triazole-linked A77 group on the PEG8 linker) [Compound 11] | < 50 nM
cyclo(ELVWCT[dP]PDCAWHLG) (disulfide 5-10; not fully specified (residue 8); also: trivalent linker structure not given here) [Compound 10] | < 50 nM
cyclo(ELVWCT[dP]PDCAWHLG) (disulfide 5-10; not fully specified (residue 8); also: one triazole-linked (2-(6-(but-3-yn-1-yloxy)-3,4,5-trihydroxytetrahydro-2H-pyran-2-yl)ethyl)phosphonic acid group on the PEG8 linker) [Compound 6] | < 50 nM
cyclo(ELVWCT[dP]PDCAWHLG) (disulfide 5-10; not fully specified (residue 8); also: trivalent linker structure not given here) [Compound 1] | < 50 nM
cyclo(ELVWCT[dP]PDCAWHLG) (disulfide 5-10; not fully specified (residue 8); also: branched PEG linker structure not given here) [Compound 9] | < 50 nM

The molecules below were run against T1, Insulin-like growth factor 2 receptor (IGF-1IR, cation-independent mannose-6-phosphate receptor, CI-MPR; hIGF-IIR) (Homo sapiens, UniProt P11717) (assay: HTRF-based ternary complex inhibition assay for relative affinity of IGF-IIR ligands). Conditions: competition with MTAC probe for His-tagged hIGF-IIR; biotinylated IgG1; apparent binding affinity; read-out: TCF INH (HTRF) IC50.
T1 construct: purchased R&D Systems 6418-GR
Method: The apparent binding affinity of Insulin-like growth factor 2 receptor (IGF-1IR, also called the cation- independent mannose-6-phosphate receptor (CI-MPR)) ligands was determined indirectly by competing with a probe molecule for binding to IGF-1IR. The probe is a Mannose 6-Phosphate Ligand (“Ligand”) and binds to hIGF-IIR and IgG1 to form a hIGF-IIR: Ligand: IgG1 ternary complex. The ternary complex was detected by an HTRF readout. The ternary complex is disrupted in the presence of IGF-1IR ligand, resulting in decreased HTRF signal. IGF-1IR ligands of 3-fold dilution series were prepared from 10 mM DMSO stock on a 384-well LDV microplate using Echo Acoustic Liquid Handler (Beckman Coulter Life Sciences) followed by transfer of 600 nL of the solutions to an OptiPlate 384-well microplate (PerkinElmer, 6007290). Manose-6-phosphate (M6P; J&K, 530168) and glucose-6-phosphate (G6P; Sigma, V900924) were prepared from 100 mM stock in the same manner and were used as positive and negative controls, respectively. The wells used as 0% and 100% inhibition controls were prepared by adding 600 nL DMSO. 20 nL of 50 μM MTAC probe was transferred to all wells except the wells used as 100% Inhibition control. 9.4 μL working solution containing 65.1 nM of Biotinylated-IgG1 (Viva 20211108) and 65.1 nM of His-tagged hIGF-IIR (R&D Systems, 6418-GR) in assay buffer 50 mM Tris, pH 7.5, 150 mM NaCl, 50 mM CaCl2, 0.01% Tween-20 was transferred to all wells. The plate was incubated at room temperature for 60 min with gentle shaking to allow molecular interaction to reach equilibration. Following this, 10 μL of HTRF detection solution containing 15 nM Streptavidin-d2 (PerkinElmer, 610SADLA) and 0.7 nM MAb Anti 6HIS—Tb cryptate (PerkinElmer, 61HISTLA) in PPI Terbium detection buffer (PerkinElmer, 61DB10RDF) was added. The assay plate was incubated at room temperature with gentle shaking for 60 min to allow HTRF signal to develop. The plate was gently spun on a centrifuge then placed on a EnVision plate reader (Perkin Elmer, EnVision 2104) to read fluorescence ratio of 665 nm/615 nm. Percent inhibitions were calculated with this equation: % I=100* [1−(X−100% I/(0% I−100% I)] where X is the […] in the presence of IGF-1IR ligand. The apparent binding affinity (presented as IC50) was calculated by fitting the % inhibition data with a non-linear 4-parameter inhibition equation using GraphPad Prism (GraphPad Software, LLC; version 9.4.1).

Molecule | IC50
CP(=O)(O)CC[C@H]1O[C@H](Oc2ccccc2)[C@@H](O)[C@@H](O)[C@@H]1O [Compound A44, methyl(2-((2R,3S,4S,5S,6R)-3,4,5-trihydroxy-6-phenoxytetrahydro-2H-pyran-2-yl)ethyl)phosphinic acid] | 10000 to 100000 nM
C[Si](C)(C)C#C[C@H]1O[C@H](CCP(=O)(O)O)[C@@H](O)[C@H](O)[C@@H]1O [Compound A18, (2-((2R,3S,4S,5S,6R)-3,4,5-trihydroxy-6-((trimethylsilyl)ethynyl)tetrahydro-2H-pyran-2-yl)ethyl)phosphonic acid] | < 10000 nM
COc1ccc(OC2O[C@H](CCP(=O)(O)CC3CC3(F)F)[C@@H](O)[C@H](O)[C@@H]2O)cc1 (stereo partly drawn) [Compound A58, ((2,2-difluorocyclopropyl)methyl) (2-((2R,3S,4S,5S)-3,4,5-trihydroxy-6-(4-methoxyphenoxy)tetrahydro-2H-pyran-2-yl)ethyl)phosphinic acid] | < 10000 nM

What follows are molecules tested against T2, hIGF-IIR and IgG1 (ternary complex) (Homo sapiens, UniProt P01857+P11717) (assay: HTRF-based ternary complex formation assay for hIGF-IIR targeting Extracellular Protein Degraders). Conditions: not given.
T2 construct: purchased R&D Systems 6418-GR
Format: binding
Description: The ternary complex formation assay is designed to identify and determine the potency of Extracellular Protein Degrader molecules which can induce the formation of ternary complex between the Extracellular Protein Degrader hIGF-IIR. Titrating Extracellular Protein Degrader to fixed amount of hIGF-IIR results in a bell-shaped curve (except molecules whose binary complex affinity between Extracellular Protein Degrader and hIGF-IIR). The peak mean represents Extracellular Protein Degrader concentration at which maximum ternary complex is formed. Too much or too little Extracellular Protein Degrader leads to decreased ternary complex formation due to formation of binary complex (Hook effect). Dose response of Extracellular Protein Degrader compounds (16-point 3-fold dilution series, 100X) were prepared by Echo Acoustic Liquid Handler (Beckman Coulter Life Sciences) using 384-well LDV microplate. Then 200 nL of the solutions were transferred to an OptiPlate 384-well microplate (PerkinElmer, 6007290). To the assay plate, 10 μL working solution containing 60 nM of Biotinylated-IgG1 (Viva 20211108) and 60 nM of His-tagged hIGF-IIR (R&D Systems, 6418-GR) in assay buffer 50 mM Tris, pH 7.5, 150 mM NaCl, 50 mM CaCl2, 0.01% Tween-20 were added. The plate was incubated for 60 min at room temperature with gentle shaking to allow molecular interaction to reach equilibration. Following this, 10 μL of HTRF detection solution containing 15 nM Streptavidin-d2 (PerkinElmer, 610SADLA) and 0.7 nM MAb Anti 6HIS—Tb cryptate (PerkinElmer, 61HISTLA) in PPI Terbium detection buffer (PerkinElmer, 61DB10RDF) were added. The assay plate was incubated at room temperature with gentle shaking for 60 min to allow HTRF signal to develop. The plate was gently spun on a centrifuge then placed on an EnVision plate reader (Perkin Elmer, EnVision 2104) to read fluorescence ratio of 665 nm/615 nm. Data were analyzed by fitting with Bell-shaped non-linear regression model using GraphPad Prism (GraphPad Software, LLC; version 9.4.1). Mean fluorescence intensity is graphed versus compound concentration and the EC50 for TCF is calculated from the inflection point of the curve (GraphPad).

Molecule | EC50
CC(C)C[C@@H]1NC(=O)[C@H](Cc2cnc[nH]2)NC(=O)[C@H](Cc2c[nH]c3ccccc23)NC(=O)[C@H](C)NC(=O)[C@@H]2CSSC[C@H](NC(=O)[C@H](Cc3c[nH]c4ccccc34)CC(=O)[C@H](C(C)C)NC(=O)[C@H](CC(C)C)NC(=O)[C@H](CCC(=O)O)NC(=O)CNC1=O)C(=O)N[C@@H]([C@@H](C)O)C(=O)N1CCC[C@@H]1C(=O)N1C[C@@H](NC(=O)CCOCCOCCOCCN(CCOCCOCCOCCn3cc(CCO[C@H]4O[C@H](CCP(=O)(O)O)[C@@H](O)[C@H](O)[C@@H]4O)nn3)CCOCCOCCOCCn3cc(CCO[C@H]4O[C@H](CCP(=O)(O)O)[C@@H](O)[C@H](O)[C@@H]4O)nn3)C[C@H]1C(=O)N[C@@H](CC(=O)O)C(=O)N2 [Compound 9] | < 50 nM
COc1ccc(OC2O[C@H](CCP(=O)(O)Cc3cccc(OCc4cn(CCOCCNC(=O)CCOCC(COCCC(=O)NCCOCCn5cc(COc6cccc(CP(=O)(O)CC[C@@H]7OC(Oc8ccc(OC)cc8)[C@H](O)[C@H](O)[C@H]7O)c6)nn5)(COCCC(=O)NCCOCCn5cc(COc6cccc(CP(=O)(O)CC[C@@H]7OC(Oc8ccc(OC)cc8)[C@H](O)[C@H](O)[C@H]7O)c6)nn5)NC(=O)COCCOCCOCC(=O)N[C@H]5C[C@H]6C(=O)N[C@@H](CC(=O)O)C(=O)N[C@H]7CSSC[C@H](NC(=O)[C@H](Cc8c[nH]c9ccccc89)NC(=O)[C@H](C(C)C)NC(=O)[C@H](CC(C)C)NC(=O)[C@H](CCC(=O)O)NC(=O)CNC(=O)[C@H](CC(C)C)NC(=O)[C@H](Cc8cnc[nH]8)NC(=O)[C@H](Cc8c[nH]c9ccccc89)NC(=O)[C@H](C)NC7=O)C(=O)N[C@@H]([C@@H](C)O)C(=O)N7CCC[C@@H]7C(=O)N6C5)nn4)c3)[C@@H](O)[C@H](O)[C@@H]2O)cc1 (stereo partly drawn) [Compound 1] | < 50 nM

Same assay, conditions: biotinylated IgG1 and His-tagged hIGF-IIR, 60 nM each; read-out: TCF (HTRF) EC50

Molecule | EC50
COc1ccc(OC2O[C@H](CCP(=O)(O)Cc3cn(CCOCCOCCOCCOCCOCCOCCOCCOCCC(=O)N[C@H]4C[C@H]5C(=O)N[C@@H](CC(=O)O)C(=O)N[C@H]6CSSC[C@H](NC(=O)[C@H](Cc7c[nH]c8ccccc78)NC(=O)[C@@H](C(C)C)NC(=O)[C@@H](CC(C)C)NC(=O)[C@H](CCC(=O)O)NC(=O)CNC(=O)[C@@H](CC(C)C)NC(=O)[C@H](Cc7cnc[nH]7)NC(=O)[C@H](Cc7c[nH]c8ccccc78)NC(=O)[C@H](C)NC6=O)C(=O)N[C@H]([C@@H](C)O)C(=O)N6CCC[C@@H]6C(=O)N5C4)nn3)[C@@H](O)[C@H](O)[C@@H]2O)cc1 (stereo partly drawn) [Compound 11] | < 50 nM
CC(C)C[C@@H]1NC(=O)[C@H](Cc2c[nH]cn2)NC(=O)[C@H](Cc2c[nH]c3ccccc23)NC(=O)[C@H](C)NC(=O)[C@@H]2CSSC[C@H](NC(=O)[C@H](Cc3c[nH]c4ccccc34)NC(=O)[C@H](C(C)C)NC(=O)[C@H](CC(C)C)NC(=O)[C@H](CCC(=O)O)NC(=O)CNC1=O)C(=O)N[C@@H]([C@@H](C)O)C(=O)N1CCC[C@@H]1C(=O)N1C[C@@H](NC(=O)CCOCCOCCOCCOCCOCCOCCOCCOCCn3cc(CCO[C@H]4O[C@H](CCP(=O)(O)O)[C@@H](O)[C@H](O)[C@@H]4O)nn3)C[C@H]1C(=O)N[C@@H](CC(=O)O)C(=O)N2 [Compound 6] | < 50 nM
